The values below come from article PMC10968448, “An In Silico and In Vitro Assessment of the Neurotoxicity of Mefloquine” (Biomedicines, 2024).

Details of series [1]: method as in PMID 32639233. The following applies: overdose; cited from earlier work.
On the set-up of series [2]: method as in PMID 21118921. Particulars: healthy male and female volunteers; cited from earlier work.
Series [3] relates to SH-SY5Y cells. Kind of series: ROS generation, DCFDA assay. The class given is cell-based, human. The following applies: 10 mM NAC with MQ 0.1–10 µM, 3 h.
Series [4] concerns human (recombinant) AChE. Set-up: method as in PMID 16288931. The following applies: 10 µM MQ; cited from earlier work.
The conditions of series [5]: human, in vivo, cited from earlier work.
The subject of series [6] is SH-SY5Y cells. Kind of series: Cellular ATP bioluminescence assay (cellular bioenergetics). The series is classed as cell-based, human. Particulars: for IC50: Homo sapiens.
Series [7] has as its target human AChE enzyme (recombinant) (Homo sapiens, UniProt P22303). Kind of series: biochemical. The class given is biochemical.
The test system of series [8] is KYSE150 cells. The arrangement: method as in PMID 32850358. Particulars: 10 µM MQ, KYSE150 oesophageal squamous cell carcinoma cell line; cited from earlier work.
The target of series [9] is human BuChE enzyme (Homo sapiens, UniProt P06276). Kind of series: biochemical. The series is classed as biochemical.
Sequence of human BuChE enzyme (P06276 29-602): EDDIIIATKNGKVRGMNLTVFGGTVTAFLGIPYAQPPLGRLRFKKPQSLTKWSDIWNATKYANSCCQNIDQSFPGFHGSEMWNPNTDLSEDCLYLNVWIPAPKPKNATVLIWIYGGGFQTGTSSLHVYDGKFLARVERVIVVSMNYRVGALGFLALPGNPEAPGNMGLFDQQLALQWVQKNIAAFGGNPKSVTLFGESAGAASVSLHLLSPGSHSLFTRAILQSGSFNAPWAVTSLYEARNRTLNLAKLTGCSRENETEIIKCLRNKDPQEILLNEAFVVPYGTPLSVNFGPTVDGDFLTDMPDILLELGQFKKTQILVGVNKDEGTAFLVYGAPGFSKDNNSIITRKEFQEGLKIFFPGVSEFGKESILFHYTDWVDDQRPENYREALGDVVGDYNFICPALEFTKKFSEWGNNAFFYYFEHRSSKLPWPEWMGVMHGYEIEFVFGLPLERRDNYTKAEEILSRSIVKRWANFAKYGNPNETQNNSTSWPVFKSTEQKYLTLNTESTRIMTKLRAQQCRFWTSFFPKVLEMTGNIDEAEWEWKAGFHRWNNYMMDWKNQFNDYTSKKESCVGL
Series [10] relates to SH-SY5Y cells. Kind of series: Mitochondrial membrane potential (MMP) assay, MitoTracker Green FM. The series is classed as cell-based, human. Particulars: 48 h exposure.
Series [11] addresses 5-hydroxytryptamine-3 (5-HT3) (serotonin) receptors. Set-up: method as in PMID 17502851. The following applies: non-competitive inhibitor; cited from earlier work.
Series [12] deals with SH-SY5Y cells. Kind of series: Flow cytometric assessment of cell death, Annexin V-FITC/PI. The class given is cell-based, human. (A flow cytometer gives signals particle by particle.)
Series [13] relates to SH-SY5Y cells. Kind of series: LDH cytotoxicity assay (extracellular LDH). The class given is cell-based, human. The following applies: for IC50: Homo sapiens.
For series [14], the system named is SH-SY5Y cells. The arrangement: method as in PMID 22465322. The following applies: 10 µM MQ, 24 h; cited from earlier work.
The test system of series [15] is SH-SY5Y cells. Kind of series: MTT assay of cell metabolic activity/viability. The class given is cell-based, human. The following applies: for increase of cell metabolic activity (MTT): 6 h, p < 0.0001; for IC50: Homo sapiens, SH-SY5Y cells, non-linear regression.
For series [16], the system named is AChE of electric eel origin. Set-up: method as in PMID 3878759. Particulars: proposed non-competitive inhibitor; cited from earlier work.
The mark [17] stands for this setting: SH-SY5Y cells, 6 h exposure, non-linear regression.
The mark [18] stands for this setting: SH-SY5Y cells, 24 h exposure, non-linear regression.
The mark [19] stands for this setting: SH-SY5Y cells, 48 h exposure, non-linear regression.

Structures can show the parent of a compound that is named as a salt. Where only a bound is given, the exact number is not on record here.

Sequence of human AChE enzyme (recombinant) (P22303 32-614): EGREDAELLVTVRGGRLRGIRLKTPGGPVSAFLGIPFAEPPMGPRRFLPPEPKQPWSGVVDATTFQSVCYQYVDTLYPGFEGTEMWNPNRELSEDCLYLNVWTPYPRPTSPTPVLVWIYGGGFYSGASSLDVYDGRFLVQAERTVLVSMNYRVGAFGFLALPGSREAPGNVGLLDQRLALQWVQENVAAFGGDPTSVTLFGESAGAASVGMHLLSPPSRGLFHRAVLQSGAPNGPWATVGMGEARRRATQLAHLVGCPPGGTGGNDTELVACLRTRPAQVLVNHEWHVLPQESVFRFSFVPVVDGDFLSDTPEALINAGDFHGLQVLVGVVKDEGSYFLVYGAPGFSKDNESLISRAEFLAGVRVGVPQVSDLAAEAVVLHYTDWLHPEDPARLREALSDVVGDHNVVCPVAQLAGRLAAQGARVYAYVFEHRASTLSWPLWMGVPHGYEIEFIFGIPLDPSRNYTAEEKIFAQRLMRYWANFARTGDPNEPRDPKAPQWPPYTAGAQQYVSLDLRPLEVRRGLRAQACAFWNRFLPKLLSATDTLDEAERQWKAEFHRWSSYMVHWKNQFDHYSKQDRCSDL

As to `CCN(CC)CCCC(C)Nc1ccnc2cc(Cl)ccc12` (stereo not drawn) [chloroquine], the “whole blood concentration associated with 1% mortality” value in [1] is 13.5 µM.

Take `O[C@H](c1cc(C(F)(F)F)nc2c(C(F)(F)F)cccc12)[C@@H]1CCCCN1` (single isomer, unassigned) [+-MQ enantiomer]: the “safety and tolerability compared with the racemate” value in series [2] was “more favourable profile for mood and sleep”.

In the case of `CC(=O)N[C@@H](CS)C(=O)O` [NAC, N-acetylcysteine], the “effect of antioxidant co-treatment on MQ-induced ROS production” value in series [3] is given as “significantly inhibited MQ-induced ROS production”.

What is called IC50 is the midpoint of a concentration-inhibition curve. As a reminder, the inhibition is the share of the control response that was lost under treatment. On to `O[C@H](c1cc(C(F)(F)F)nc2c(C(F)(F)F)cccc12)[C@@H]1CCCCN1` (racemic) [MQ, (R*,S*)-(+/−)-α-2-Piperidyl-2,8-bis(trifluoromethyl)quinoline-4-methanol monohydrochloride], for which, in [4], the “inhibition of human (recombinant) AChE” value is < 10%. The “time of peak concentration in the blood” value in series [5] (po) is 7 to 24 h. In addition, the terminal half-life in series [5] was 14 to 15 days. Further, the “concentration from which cellular ATP is significantly reduced” value is ≥ 1 µM in [6] (6 h exposure) and ≥ 0.1 µM in series [6] (48 h exposure). Also, the IC50 in series [6] (SH-SY5Y, 24 h exposure) was ~6 µM; in series [6] (setting [17]) it was 10.2 µM; in series [6] (setting [18]) it was 4.73 µM; in series [6] (setting [19]) it was 3.19 µM; in [11], ~10 µM; in series [13] (SH-SY5Y, 24 h exposure), ~16 µM. The IC50 in [13] (setting [17]) was found to be 26.2 µM; in series [13] (setting [18]), 16.2 µM; in series [13] (setting [19]), 11.7 µM; in series [15] (6 h exposure), 67.1 µM; in series [15] (24 h exposure) it was 23.9 µM; in series [15] (48 h exposure) it was 14.2 µM. The inhibition at 1 µM in [7] (1 µM MQ) amounted to 9.8%. Moreover, the inhibition at 10 µM in series [7] (10 µM MQ, significant) came to 20.5%. Moreover, the “concentration from which AChE activity is significantly reduced” value in [7] (MQ 1–100 µM assayed) was ≥ 10 µM. For the same compound, the “effect on cell number” value in series [8] is reported as “reduces the cell number”. In addition, the inhibition at 100 µM in series [9] (100 µM MQ) was 18%. Further, the “concentration from which BuChE activity is significantly reduced” value in series [9] (MQ 1–100 µM assayed) was ≥ 25 µM. Also, the “reduction in BuChE enzymatic activity” value in [9] (MQ exposures of between 1 and 25 µM) was “approximately 10%”. Also, the “concentration at which the MMP is significantly altered” value in series [10] is listed as 10 µM. Further, the “concentration at which increase in apoptotic cells reached significance” value in [12] (6 h exposure) stood at 50 µM; in series [12] (24 h exposure) it was 20 µM. In addition, the “extracellular LDH production” value in series [13] (0.1 to 10 µM MQ, except 10 µM after 48 h) was “no significant LDH production”. For the same compound, the “extracellular LDH levels” value in [13] (25, 50 and 100 µM MQ) is reported as “dramatic increase”. Moreover, the “reduction of cell viability (MTT)” value in series [14] is reported as “approximately 20%”. The “increase of cell metabolic activity (MTT)” value was 27% in series [15] (1 µM MQ) and “approximately 29%” in [15] (10 µM MQ). In series [15] (10 µM MQ, 48 h, p = 0.024), the “reduction of cell metabolic activity (MTT)” value was 13.6%. Besides, the “threshold concentration for significant reduction in viability” value in [15] (48 h exposure) is on record as ~10 µM. The “threshold concentration for toxicity to neuroblastoma cells (MTT)” value in series [15] (all time points examined (6, 24, 48 h)) is ≥ 25 µM. For the same compound, in [16], the “inhibition of electric eel AChE” value is on record as “weak inhibitor”.
